31 compounds from patent publication US9695171B2, “3,4-disubstituted-1 H-pyrrolo[2,3-b]pyridines and 4,5-disubstituted-7H-pyrrolo[2,3-c]pyridazines as LRRK2 inhibitors” (Pfizer Inc., priority 2013, dated 2017) can be followed below.

For this assay, the target named is T1, GST-tagged truncated LRRK2 (Homo sapiens, UniProt Q5S007).
T1 construct: GST-tagged truncated LRRK2 from Invitrogen (Cat # PV4874); GST; purchased Invitrogen PV4874
T1 sequence (Q5S007 970-2527 limits assumed): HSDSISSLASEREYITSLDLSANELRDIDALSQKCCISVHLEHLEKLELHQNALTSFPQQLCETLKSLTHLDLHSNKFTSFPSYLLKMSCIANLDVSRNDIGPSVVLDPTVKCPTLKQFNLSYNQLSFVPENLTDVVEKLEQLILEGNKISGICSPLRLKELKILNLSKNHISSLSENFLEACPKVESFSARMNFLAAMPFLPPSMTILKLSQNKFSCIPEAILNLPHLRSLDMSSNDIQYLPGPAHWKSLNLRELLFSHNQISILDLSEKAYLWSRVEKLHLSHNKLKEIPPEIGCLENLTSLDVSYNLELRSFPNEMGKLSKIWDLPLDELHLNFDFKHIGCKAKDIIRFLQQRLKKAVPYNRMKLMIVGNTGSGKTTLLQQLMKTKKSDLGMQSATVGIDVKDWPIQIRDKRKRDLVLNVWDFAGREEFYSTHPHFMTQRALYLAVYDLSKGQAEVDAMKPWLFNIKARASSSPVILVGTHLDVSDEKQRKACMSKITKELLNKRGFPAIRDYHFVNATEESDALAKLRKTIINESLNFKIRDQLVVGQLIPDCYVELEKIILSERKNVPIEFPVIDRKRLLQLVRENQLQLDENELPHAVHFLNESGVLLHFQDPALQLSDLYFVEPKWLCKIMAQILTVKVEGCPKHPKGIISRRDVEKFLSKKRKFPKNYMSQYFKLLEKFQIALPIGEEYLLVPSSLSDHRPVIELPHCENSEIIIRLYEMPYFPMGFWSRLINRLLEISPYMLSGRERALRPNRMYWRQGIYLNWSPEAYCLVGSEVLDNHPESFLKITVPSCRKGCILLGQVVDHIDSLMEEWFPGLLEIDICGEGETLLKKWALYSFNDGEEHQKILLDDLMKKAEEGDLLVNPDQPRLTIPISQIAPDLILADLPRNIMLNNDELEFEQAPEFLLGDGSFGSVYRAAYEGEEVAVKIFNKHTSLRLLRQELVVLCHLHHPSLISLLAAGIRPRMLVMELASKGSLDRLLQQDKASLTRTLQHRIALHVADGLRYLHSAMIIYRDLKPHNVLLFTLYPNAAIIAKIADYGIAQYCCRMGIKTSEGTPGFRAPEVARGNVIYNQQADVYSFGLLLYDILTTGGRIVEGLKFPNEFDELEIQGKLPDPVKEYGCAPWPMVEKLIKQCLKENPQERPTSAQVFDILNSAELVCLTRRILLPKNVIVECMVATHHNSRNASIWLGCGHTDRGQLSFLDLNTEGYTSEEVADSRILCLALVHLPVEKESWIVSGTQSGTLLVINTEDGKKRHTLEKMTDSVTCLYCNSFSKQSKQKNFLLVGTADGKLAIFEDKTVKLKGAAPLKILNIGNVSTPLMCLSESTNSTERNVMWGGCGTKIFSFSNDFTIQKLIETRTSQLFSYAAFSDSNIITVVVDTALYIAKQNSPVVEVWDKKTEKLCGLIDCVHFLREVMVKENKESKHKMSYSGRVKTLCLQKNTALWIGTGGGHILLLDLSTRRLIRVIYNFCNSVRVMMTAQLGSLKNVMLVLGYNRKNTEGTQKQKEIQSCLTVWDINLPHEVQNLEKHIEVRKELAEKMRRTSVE
In words: LRRK2 kinase assay (Lantha Screen). It counts as biochemical. As to conditions: 1 mM ATP (head); a = geometric mean of >=4 determinations, b = single determination; read-out: LRRK2 LANTHA EC50 at 1 mM ATP; Geometric mean of 2-3 determinations unless otherwise indicated. The protocol:
LRRK2 kinase activity was measured using Lantha Screen technology from Invitrogen. GST-tagged truncated LRRK2 from Invitrogen (Cat # PV4874) was incubated with a fluorescein-labeled peptide substrate based upon ezrin/radixin/moesin (ERM), also known as LRRKtide (Invitrogen cat # PR8976A), in the presence of a dose response of compound. Upon completion, the assay was stopped and detected with a terbium labeled anti-phospho-ERM antibody (Invitrogen, cat # PR8975A). […] The compound dose response was prepared by diluting compound to a top concentration of 3.16 mM in 100% DMSO and serial diluted by half-log in DMSO 11 times. Aliquots (3.5 μL) of the 100% DMSO dose response were mixed with 46.5 μL water then 1 μL of this mixture was added to the 3 μL substrate mix in the 384-well plate. The kinase reaction was started with 3 μL of a working solution of LRRK2 enzyme at a concentration of 4 μg/mL. […] The reaction was allowed to progress at room temperature for two hours and then stopped with the addition of 7 μL of detection buffer (20 mM Tris pH 7.6, 0.01% NP-40, 0.02% NaN3, 6 mM EDTA with 2 nM terbium labeled anti-phospho-ERM). After an incubation of 1 hour at room temperature, the plate was read on an Envision with an excitation wavelength of 340 nm and a reading emission at both 520 nm and 495 nm. The ratio of the 520 nm and 495 nm emission was used to analyze the data.
For `COc1ccc(F)c(F)c1-c1c[nH]c2nccc(N3CCOCC3)c12` [Example 40, 3-(2,3-difluoro-6-methoxyphenyl)-4-(morpholin-4-yl)-1H-pyrrolo[2,3-b]pyridine], the EC50 amounted to 105 nM.
In the case of `N#Cc1cc(-c2c[nH]c3nccc(N4CCOCC4)c23)ccc1F` [Example 41, 2-fluoro-5-[4-(morpholin-4-yl)-1H-pyrrolo[2,3-b]pyridin-3-yl]benzonitrile] it was 226 nM; in that of `COc1cncc(-c2c[nH]c3nccc(N4CCOCC4)c23)c1` [Example 42, 3-(5-methoxypyridin-3-yl)-4-(morpholin-4-yl)-1H-pyrrolo[2,3-b]pyridine], 240 nM; in that of `Cc1[nH]c2nccc(N3CCOCC3)c2c1-c1cccc(C#N)n1` [Example 43, 6-[2-methyl-4-(morpholin-4-yl)-1H-pyrrolo[2,3-b]pyridin-3-yl]pyridine-2-carbonitrile], 31.9 nM.
As for `Cn1cc(-c2c[nH]c3ncc(C#N)c(N4CCOCC4)c23)cn1` [Example 44, 3-(1-methyl-1H-pyrazol-4-yl)-4-(morpholin-4-yl)-1H-pyrrolo[2,3-b]pyridine-5-carbonitrile], the EC50 is 143 nM.
In the case of `N#Cc1cccc(-c2c[nH]c3ncc(C#N)c(N4CCOCC4)c23)c1F` [Example 45, 3-(3-cyano-2-fluorophenyl)-4-(morpholin-4-yl)-1H-pyrrolo[2,3-b]pyridine-5-carbonitrile] it was 20.4 nM.
In the case of `Cc1cc(F)cc(-c2c[nH]c3ncc(C#N)c(N4CCOCC4)c23)c1` [Example 46, 3-(3-fluoro-5-methylphenyl)-4-(morpholin-4-yl)-1H-pyrrolo[2,3-b]pyridine-5-carbonitrile] it was 29.6 nM.
As for `N#Cc1ccc(F)c(-c2c[nH]c3nccc(N4CCOCC4)c23)c1` [Example 47, 4-fluoro-3-[4-(morpholin-4-yl)-1H-pyrrolo[2,3-b]pyridin-3-yl]benzonitrile], the figure is 144 nM; as for `N#Cc1ccc(-c2c[nH]c3nccc(N4CCOCC4)c23)c(F)c1` [Example 48, 3-fluoro-4-[4-(morpholin-4-yl)-1H-pyrrolo[2,3-b]pyridin-3-yl]benzonitrile], 217 nM.
On to `N#Cc1cc(CO)cc(-c2c[nH]c3nccc(N4CCOCC4)c23)c1` [Example 49, 3-(hydroxymethyl)-5-[4-(morpholin-4-yl)-1H-pyrrolo[2,3-b]pyridin-3-yl]benzonitrile], for which the concentration giving a half-maximal response (EC50) was 50.8 nM.
In the case of `Fc1ccc(-c2c[nH]c3nccc(N4CCOCC4)c23)cc1` [Example 50, 3-(4-fluorophenyl)-4-(morpholin-4-yl)-1H-pyrrolo[2,3-b]pyridine] it was 191 nM; in that of `Cc1cncc(-c2c(C)[nH]c3nccc(N4CCOCC4)c23)c1` [Example 51, 2-methyl-3-(5-methylpyridin-3-yl)-4-(morpholin-4-yl)-1H-pyrrolo[2,3-b]pyridine], 191 nM.
As for `Cc1[nH]c2nccc(N3CCOCC3)c2c1-c1cccc(Cl)c1` [Example 52, 3-(3-chlorophenyl)-2-methyl-4-(morpholin-4-yl)-1H-pyrrolo[2,3-b]pyridine], the figure is 158 nM; as for `Cc1[nH]c2nccc(N3CCOCC3)c2c1-c1ccccc1` [Example 53, 2-methyl-4-(morpholin-4-yl)-3-phenyl-1H-pyrrolo[2,3-b]pyridine], 201 nM.
As for `Cc1[nH]c2nccc(N3CCOCC3)c2c1-c1ccccc1F` [Example 54, 3-(2-fluorophenyl)-2-methyl-4-(morpholin-4-yl)-1H-pyrrolo[2,3-b]pyridine], the figure is 91.6 nM; as for `Cc1[nH]c2nccc(N3CCOCC3)c2c1-c1cccc(F)c1` [Example 55, 3-(3-fluorophenyl)-2-methyl-4-(morpholin-4-yl)-1H-pyrrolo[2,3-b]pyridine], 101 nM; as for `Cc1[nH]c2nccc(N3CCOCC3)c2c1-c1cc(F)cc(C#N)c1` [Example 56, 3-fluoro-5-[2-methyl-4-(morpholin-4-yl)-1H-pyrrolo[2,3-b]pyridin-3-yl]benzonitrile], 174 nM.
`Cn1cc(-c2c[nH]c3nccc(N4CCCC(O)C4)c23)cn1` (stereo not shown) [Example 57, 1-[3-(1-methyl-1H-pyrazol-4-yl)-1H-pyrrolo[2,3-b]pyridin-4-yl]piperidin-3-ol]: the EC50 came out at 91.9 nM.
As for `C[C@H]1CN(c2ccnc3[nH]cc(-c4cnn(C)c4)c23)CCO1` [Example 58, 4-[(2S)-2-methylmorpholin-4-yl]-3-(1-methyl-1H-pyrazol-4-yl)-1H-pyrrolo[2,3-b]pyridine], the figure is 169 nM; as for `Cn1cc(-c2c[nH]c3nccc(N4CCCC(F)(F)C4)c23)cn1` [Example 59, 4-(3,3-difluoropiperidin-1-yl)-3-(1-methyl-1H-pyrazol-4-yl)-1H-pyrrolo[2,3-b]pyridine], 197 nM; as for `Cn1cc(-c2c[nH]c3nccc(N4CCCC(CO)C4)c23)cn1` (stereo not shown) [Example 60, {1-[3-(1-methyl-1H-pyrazol-4-yl)-1H-pyrrolo[2,3-b]pyridin-4-yl]piperidin-3-yl}methanol], 140 nM.
In the case of `Cn1cc(-c2c[nH]c3nccc(N4C[C@H]5CC[C@@H](C4)O5)c23)cn1` [Example 61, 3-(1-methyl-1H-pyrazol-4-yl)-4-(8-oxa-3-azabicyclo[3.2.1]oct-3-yl)-1H-pyrrolo[2,3-b]pyridine] it was 221 nM; in that of `CN(C)c1ccnc2[nH]cc(-c3cnn(C)c3)c12` [Example 62, N,N-dimethyl-3-(1-methyl-1H-pyrazol-4-yl)-1H-pyrrolo[2,3-b]pyridin-4-amine], 185 nM.
As for `Cn1cc(-c2c[nH]c3nccc(N4CCSCC4)c23)cn1` [Example 63, 3-(1-methyl-1H-pyrazol-4-yl)-4-(thiomorpholin-4-yl)-1H-pyrrolo[2,3-b]pyridine], the figure is 71.9 nM.
Take `Cn1cc(-c2c[nH]c3nccc(N4CCC(F)(F)C4)c23)cn1` [Example 64, 4-(3,3-difluoropyrrolidin-1-yl)-3-(1-methyl-1H-pyrazol-4-yl)-1H-pyrrolo[2,3-b]pyridine]: the EC50 was 195 nM.
In the case of `N#Cc1cccc(-c2c[nH]c3nccc(C4=CCOCC4)c23)c1` [Example 65, 3-[4-(3,6-dihydro-2H-pyran-4-yl)-1H-pyrrolo[2,3-b]pyridin-3-yl]benzonitrile] it was 7.17 nM.
As for `N#Cc1cccc(-c2c[nH]c3nccc(N4CCCC(O)C4)c23)c1` (stereo not shown) [Example 66, 3-[4-(3-hydroxypiperidin-1-yl)-1H-pyrrolo[2,3-b]pyridin-3-yl]benzonitrile], the figure is 24.3 nM; as for `COCC1CN(c2ccnc3[nH]cc(-c4cccc(C#N)c4)c23)CCO1` (stereo not shown) [Example 67, 3-{4-[2-(methoxymethyl)morpholin-4-yl]-1H-pyrrolo[2,3-b]pyridin-3-yl}benzonitrile], 22 nM.
As for `c1cc(N2CCOCC2)c2c(-c3cn[nH]c3)c[nH]c2n1` [Example 68, 4-(morpholin-4-yl)-3-(1H-pyrazol-4-yl)-1H-pyrrolo[2,3-b]pyridine], the figure is 30.5 nM.
On to `N#Cc1cccc(-c2c[nH]c3nccc(N4CCCOCC4)c23)c1` [Example 69, 3-[4-(1,4-oxazepan-4-yl)-1H-pyrrolo[2,3-b]pyridin-3-yl]benzonitrile], for which the EC50 is 150 nM.
Regarding `N#Cc1cccc(-c2c[nH]c3nccc(N4CCC(O)CC4)c23)c1` [Example 70, 3-[4-(4-hydroxypiperidin-1-yl)-1H-pyrrolo[2,3-b]pyridin-3-yl]benzonitrile], the EC50 worked out at 85.3 nM.

A word on the EC50: it is the concentration that produces a half-maximal response.
